According to patent US20150105252A1, “SUBSTITUTED PYRAZOLES AS HERBICIDES” (E I DU PONT DE NEMOURS AND COMPANY, priority 2013, published 2015):

What was measured:
barnyardgrass [1] = assay: Test A preemergence; type: in vivo, Echinochloa crus-galli; conditions: preemergence
Summary of the method: (§1)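 Ratings express plant response from 0 (no effect) to 100 (complete control), judged visually against untreated controls after approximately 10 days in the greenhouse. Preemergence applications were made as directed soil sprays onto seeded loam–sand mix, and postemergence applications onto 2–10 cm plants at one- to two-leaf stage.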

crabgrass, large [2] = assay: Test A preemergence; type: in vivo, Digitaria sanguinalis; conditions: preemergence; for Crabgrass, Large plant response rating (0 to 100 scale): 125 g ai/ha, visual injury approx. 10 days after treatment; for Crabgrass, Large plant response rating: 500 g ai/ha, visual injury after approx. 10 days, 0 to 100 scale (0 no effect, 100 complete control)
Summary of the method: as §1

foxtail, giant [3] = assay: Test A preemergence; type: in vivo, Setaria faberii; conditions: preemergence; for Foxtail, Giant plant response rating (0 to 100 scale): 125 g ai/ha, visual injury approx. 10 days after treatment; for Foxtail, Giant plant response rating: 500 g ai/ha, visual injury after approx. 10 days, 0 to 100 scale (0 no effect, 100 complete control)
Summary of the method: as §1

morningglory [4] = assay: Test A preemergence; type: in vivo, Ipomoea spp.; conditions: preemergence; for Morningglory plant response rating (0 to 100 scale): 125 g ai/ha, visual injury approx. 10 days after treatment; for Morningglory plant response rating: 500 g ai/ha, visual injury after approx. 10 days, 0 to 100 scale (0 no effect, 100 complete control)
Summary of the method: as §1

pigweed [5] = assay: Test A preemergence; type: in vivo, Amaranthus retroflexus; conditions: preemergence; for Pigweed plant response rating (0 to 100 scale): 125 g ai/ha, visual injury approx. 10 days after treatment; for Pigweed plant response rating: 500 g ai/ha, visual injury after approx. 10 days, 0 to 100 scale (0 no effect, 100 complete control)
Summary of the method: as §1

velvetleaf [6] = assay: Test A preemergence; type: in vivo, Abutilon theophrasti; conditions: preemergence; for Velvetleaf plant response rating (0 to 100 scale): 125 g ai/ha, visual injury approx. 10 days after treatment; for Velvetleaf plant response rating: 500 g ai/ha, visual injury after approx. 10 days, 0 to 100 scale (0 no effect, 100 complete control)
Summary of the method: as §1

wheat [7] = assay: Test A preemergence; type: in vivo, Triticum aestivum; conditions: preemergence; for Wheat plant response rating (0 to 100 scale): 125 g ai/ha, visual injury approx. 10 days after treatment; for Wheat plant response rating: 500 g ai/ha, visual injury after approx. 10 days, 0 to 100 scale (0 no effect, 100 complete control)
Summary of the method: as §1

corn [8] = assay: Test A preemergence; type: in vivo, Zea mays; conditions: preemergence; for Corn plant response rating (0 to 100 scale): 125 g ai/ha, visual injury approx. 10 days after treatment; for Corn plant response rating: 500 g ai/ha, visual injury after approx. 10 days, 0 to 100 scale (0 no effect, 100 complete control)
Summary of the method: as §1

barnyardgrass [9] = assay: Test A postemergence; type: in vivo, Echinochloa crus-galli
Summary of the method: as §1

crabgrass, large [10] = assay: Test A postemergence; type: in vivo, Digitaria sanguinalis
Summary of the method: as §1

foxtail, giant [11] = assay: Test A postemergence; type: in vivo, Setaria faberii
Summary of the method: as §1

morningglory [12] = assay: Test A postemergence; type: in vivo, Ipomoea spp.
Summary of the method: as §1

pigweed [13] = assay: Test A postemergence; type: in vivo, Amaranthus retroflexus
Summary of the method: as §1

velvetleaf [14] = assay: Test A postemergence; type: in vivo, Abutilon theophrasti
Summary of the method: as §1

wheat [15] = assay: Test A postemergence; type: in vivo, Triticum aestivum
Summary of the method: as §1

corn [16] = assay: Test A postemergence; type: in vivo, Zea mays
Summary of the method: as §1

rice = assay: Test B flood; type: in vivo, Oryza sativa; conditions: 250 g ai/ha, visual rating on 0 to 100 scale (0 no effect, 100 complete control), 13 to 15 days
Summary of the method: (§2)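 Paddy-water application: seedlings at 2-leaf stage, flood depth 3 cm maintained for the test duration. Evaluation after 13–15 days in the greenhouse by eye relative to controls; 0–100 scale.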

sedge, umbrella = assay: Test B flood; type: in vivo, Cyperus difformis; conditions: 250 g ai/ha, visual rating on 0 to 100 scale (0 no effect, 100 complete control), 13 to 15 days
Summary of the method: as §2

ducksalad = assay: Test B flood; type: in vivo, Heteranthera limosa; conditions: 250 g ai/ha, visual rating on 0 to 100 scale (0 no effect, 100 complete control), 13 to 15 days
Summary of the method: as §2

barnyardgrass [17] = assay: Test B flood; type: in vivo, Echinochloa crus-galli; conditions: 250 g ai/ha, visual rating on 0 to 100 scale (0 no effect, 100 complete control), 13 to 15 days
Summary of the method: as §2

[18] = 125 g ai/ha, visual injury, 0 to 100 scale, approx. 10 days
[19] = 500 g ai/ha, visual injury after approx. 10 days, 0 to 100 scale (0 no effect, 100 complete control)
[20] = Postemergence, 500 g ai/ha, 0 to 100 scale (0 no effect, 100 complete control)
[21] = postemergence, 125 g ai/ha, about 10 days, visual rating on 0 to 100 scale (0 no effect, 100 complete control)

Compound | Barnyardgrass plant response rating (barnyardgrass [1]; [18]) | Barnyardgrass plant response rating (barnyardgrass [1]; [19]) | Crabgrass, Large plant response rating (0 to 100 scale) (crabgrass, large [2]) | Crabgrass, Large plant response rating (crabgrass, large [2]) | Foxtail, Giant plant response rating (0 to 100 scale) (foxtail, giant [3]) | Foxtail, Giant plant response rating (foxtail, giant [3]) | Morningglory plant response rating (0 to 100 scale) (morningglory [4]) | Morningglory plant response rating (morningglory [4]) | Pigweed plant response rating (0 to 100 scale) (pigweed [5]) | Pigweed plant response rating (pigweed [5]) | Velvetleaf plant response rating (0 to 100 scale) (velvetleaf [6]) | Velvetleaf plant response rating (velvetleaf [6]) | Wheat plant response rating (0 to 100 scale) (wheat [7]) | Wheat plant response rating (wheat [7]) | Corn plant response rating (0 to 100 scale) (corn [8]) | Corn plant response rating (corn [8]) | Barnyardgrass plant response rating (barnyardgrass [9]; [20]) | Barnyardgrass plant response rating (barnyardgrass [9]; [21]) | Crabgrass, Large plant response rating (crabgrass, large [10]; [20]) | Crabgrass, Large plant response rating (crabgrass, large [10]; [21]) | other results
CCc1cc(C(=O)NC2CC2)nn1Cc1nc(C(F)(F)F)no1 [Compound 163] | 10 | 60 | 50 | 100 | 20 | 70 | 0 | 70 | 30 | 100 | 10 | 50 | 0 | 10 | 0 | 0 | 40 | 10 | 70 | 20 | Foxtail, Giant plant response rating (foxtail, giant [11]; [20]): 80; Foxtail, Giant plant response rating (foxtail, giant [11]; [21]): 10; Morningglory plant response rating (morningglory [12]; [20]): 90; Morningglory plant response rating (morningglory [12]; [21]): 30; Pigweed plant response rating (pigweed [13]; [20]): 90; Pigweed plant response rating (pigweed [13]; [21]): 50; Velvetleaf plant response rating (velvetleaf [14]; [20]): 80; Velvetleaf plant response rating (velvetleaf [14]; [21]): 50; Wheat plant response rating (wheat [15]; [20]): 0; Wheat plant response rating (wheat [15]; [21]): 0; Corn plant response rating (corn [16]; [20]): 30; Corn plant response rating (corn [16]; [21]): 0; Plant response rating, Rice (rice): 0; Plant response rating, Sedge, Umbrella (sedge, umbrella): 0; Plant response rating, Ducksalad (ducksalad): 0; Plant response rating, Barnyardgrass (barnyardgrass [17]): 0
CCCNC(=O)c1cc(CC)n(Cc2nc(C(F)(F)F)no2)n1 [Compound 164] | 10 | 80 | 80 | 90 | 10 | 70 | 0 | 80 | 20 | 80 | 0 | 10 | 0 | 20 | 0 | 50 | 40 | 10 | 60 | 10 | Foxtail, Giant plant response rating (foxtail, giant [11]; [20]): 40; Foxtail, Giant plant response rating (foxtail, giant [11]; [21]): 10; Morningglory plant response rating (morningglory [12]; [20]): 70; Morningglory plant response rating (morningglory [12]; [21]): 50; Pigweed plant response rating (pigweed [13]; [20]): 40; Pigweed plant response rating (pigweed [13]; [21]): 20; Velvetleaf plant response rating (velvetleaf [14]; [20]): 60; Velvetleaf plant response rating (velvetleaf [14]; [21]): 20; Wheat plant response rating (wheat [15]; [20]): 20; Wheat plant response rating (wheat [15]; [21]): 0; Corn plant response rating (corn [16]; [20]): 40; Corn plant response rating (corn [16]; [21]): 10; Plant response rating, Rice (rice): 0; Plant response rating, Sedge, Umbrella (sedge, umbrella): 0; Plant response rating, Ducksalad (ducksalad): 0; Plant response rating, Barnyardgrass (barnyardgrass [17]): 0
CCc1cc(-c2ccc(C(F)(F)F)cc2)nn1C(=O)c1ccnc(C(F)(F)F)c1 [Compound 165] | 0 | 0 | 0 | 0 | 0 | 0 | 0 | 0 | 10 | 20 | 0 | 0 | 0 | 0 | 0 | 0 | 10 | 10 | 20 | 10 | Foxtail, Giant plant response rating (foxtail, giant [11]; [20]): 10; Foxtail, Giant plant response rating (foxtail, giant [11]; [21]): 10; Morningglory plant response rating (morningglory [12]; [20]): 20; Morningglory plant response rating (morningglory [12]; [21]): 10; Pigweed plant response rating (pigweed [13]; [20]): 80; Pigweed plant response rating (pigweed [13]; [21]): 30; Velvetleaf plant response rating (velvetleaf [14]; [20]): 20; Velvetleaf plant response rating (velvetleaf [14]; [21]): 10; Wheat plant response rating (wheat [15]; [20]): 10; Wheat plant response rating (wheat [15]; [21]): 0; Corn plant response rating (corn [16]; [20]): 10; Corn plant response rating (corn [16]; [21]): 10; Plant response rating, Rice (rice): 0; Plant response rating, Sedge, Umbrella (sedge, umbrella): 0; Plant response rating, Ducksalad (ducksalad): 0; Plant response rating, Barnyardgrass (barnyardgrass [17]): 0
CCCCNC(=O)c1cc(Cl)n(Cc2cccc(C(F)(F)F)c2)n1 [Compound 171] | 0 | 0 | 0 | 0 | 0 | 0 | 0 | 0 | 0 | 0 | 0 | 0 | 0 | 0 | 0 | 0 | 20 | 0 | 30 | 10 | Foxtail, Giant plant response rating (foxtail, giant [11]; [20]): 20; Foxtail, Giant plant response rating (foxtail, giant [11]; [21]): 10; Morningglory plant response rating (morningglory [12]; [20]): 30; Morningglory plant response rating (morningglory [12]; [21]): 0; Pigweed plant response rating (pigweed [13]; [20]): 50; Pigweed plant response rating (pigweed [13]; [21]): 20; Velvetleaf plant response rating (velvetleaf [14]; [20]): 30; Velvetleaf plant response rating (velvetleaf [14]; [21]): 20; Wheat plant response rating (wheat [15]; [20]): 0; Wheat plant response rating (wheat [15]; [21]): 0; Corn plant response rating (corn [16]; [20]): 20; Corn plant response rating (corn [16]; [21]): 0; Plant response rating, Rice (rice): 0; Plant response rating, Sedge, Umbrella (sedge, umbrella): 0; Plant response rating, Ducksalad (ducksalad): 0; Plant response rating, Barnyardgrass (barnyardgrass [17]): 0
